Assay results from US20160280789A1, “METHODS FOR TREATING HEMATOLOGICAL MALIGNANCIES” (CHILDREN'S HOSPITAL LOS ANGELES, priority 2013, published 2016).
“Also recorded” adds a separate entry of the source. Like-named read-outs stand apart in the source and are kept apart here.

Columns and labels:
[1] = test system: ITGA6fl/fl BCR/ABL1+ pre-B ALL cells; experiment: In vivo model of BCR-ABL1-transformed ITGA6fl/fl ALL in NOD/SCID mice, survival with Nilotinib; set-up: species or system mouse
Protocol: A, Bioluminescence imaging was performed at indicated days post-ALL cells injection. […] C, D ITGA6 deletion was confirmed by FACS in BM cells of mice sacrificed at time of death of leukemia. E, Residual leukemia cells were determined in spleen and bone marrow by RT-PCR and F, PCR in the groups EmptyER^T2+Nilotinib and CreER^T2+Nilotinib.
Bone marrow cells from ITGA6fl/fl mice (Georges-Labouesse et al.) mice were harvested and retrovirally transformed by BCR-ABL1 (Pear et al.) in the presence of 10 ng IL7 (Peprotech) in Retronectin-(Takara) coated plates. All BCR-ABL1-transformed ALL cells derived from bone marrow of mice were maintained in Iscove's modified Dulbecco's medium (IMDM) with GlutaMAX containing 20% fetal bovine serum (Atlanta Biologica), 100 IU/ml penicillin, 100 μg/ml streptomycin (Invitrogen), and 50 μM 2-mercaptoethanol (Sigma-Aldrich) at 37° C. in a humidified incubator with 5% CO2. After cytokine-independent proliferation, BCR-ABL1 transformed ITGA6fl/fl cells were transduced retrovirally with EmptyERT2 or CreERT2. […] D-Luciferin (Promega) dissolved in PBS was injected intraperitoneally at a dose of 2.5 mg per mouse 15 minutes before measuring the luminescence signal. […] Mice were monitored for weight loss and other leukemia symptoms. Moribund mice were sacrificed and tissues were analyzed for leukemia cell infiltration to confirm leukemia as the cause of death.
To determine the effect of VLA6 deletion on leukemia progression in vivo, ITGA6 competent ITGA6fl/fl BCR/ABL1+ pre-B (B220+CD19+) CreERT2+ or control transduced ALL cells were lentivirally luciferase labeled and transferred into NOD/SCID mice (FIG. 6A). […] For this purpose, splenic cells and bone marrow cells of leukemia recipient animals were isolated and analyzed for BCR-ABL1 mRNA expression by RT-PCR (FIG. 6E) and BCR-ABL1 expression in genomic DNA by PCR (FIG. 6F).

[2] = test system: BCR-ABL-1+ ITGA6fl/fl cells; experiment: cells; details: Mus musculus, 72 h
Protocol: Viability of CreER^T2 and EmptyER^T2 ITGA6^f/f BCR-ABL1^+ CreER^T2 and EmptyER^T2 cells were plated onto tissue culture plates (no further ligand coated) and treated with Tamoxifen (1.5 μM) and Nilotinib (0.02 μM or 0.2 μM) for 1 to 3 days. Cell viability was determined by trypan blue exclusion. Y axis indicates cell viability relative to initial.
Bone marrow cells from ITGA6fl/fl mice (Georges-Labouesse et al.) mice were harvested and retrovirally transformed by BCR-ABL1 (Pear et al.) in the presence of 10 ng IL7 (Peprotech) in Retronectin-(Takara) coated plates. All BCR-ABL1-transformed ALL cells derived from bone marrow of mice were maintained in Iscove's modified Dulbecco's medium (IMDM) with GlutaMAX containing 20% fetal bovine serum (Atlanta Biologica), 100 IU/ml penicillin, 100 μg/ml streptomycin (Invitrogen), and 50 μM 2-mercaptoethanol (Sigma-Aldrich) at 37° C. in a humidified incubator with 5% CO2. After cytokine-independent proliferation, BCR-ABL1 transformed ITGA6fl/fl cells were transduced retrovirally with EmptyERT2 or CreERT2. […] After 1 μg/ml puromycin selection, VLA6 deletion was induced in vitro by addition of 1.0 μM tamoxifen (Sigma-Aldrich). […]

Compound: Cc1cn(-c2cc(NC(=O)c3ccc(C)c(Nc4nccc(-c5cccnc5)n4)c3)cc(C(F)(F)F)c2)cn1 [Nilotinib]
- Median survival time (MST), CreERT2 (ITGA6 deleted) leukemia ([1]; n=5, Tamoxifen-induced in vivo deletion): survived; also recorded: undefined
- Median survival time (MST), EmptyERT2 (ITGA6 competent) leukemia ([1]; n=6, days post-leukemia injection): 39.5 days
- viability at 0.02 µM ([2]; read-out: Viability of leukemia cells, CreERT2 (ITGA6 deleted)): 10.2%
- viability at 0.02 µM ([2]; read-out: Viability of leukemia cells, EmptyERT2 (ITGA6 competent)): 83.7%
